Patent US11459375B2, “Cyclic peptides for the treatment of Graves' disease” (advanceCOR GmbH, priority 2017, dated 2022)
Peptide text beside a SMILES is read from it.

Key:
[1] = tested on: immunologically naïve mice; test: tolerability and immunogenicity study in immunologically naive mice; settings: for clinical findings / tolerability: 1 mg/kg bw IV, monthly administrations for 6 months
Method: BALB/c mice were adapted for at least one week to start experiments at the age of 12 weeks. Animals were kept as described before. […] Peptides (either 1 mg/kg body weight or NaCl vehicle control) were given by IV injection into a tail vein of these naïve mice (n=5 per group), and then continued at 4-weekly intervals for 6 months, as described before for the therapeutic study in immunized mice. Serum samples were taken at identical intervals.
1) “3rd generation assay”: Antibodies against TSHR were detected by a commercially available 3rd generation enzyme immunoassay provided by RSR Limited, Avenue Park, Pentwyn, Cardiff, U.K., in which the of the human Graves patient-derived M22 monoclonal antibody and serum antibodies compete for binding sites on immobilized TSHR. […] The assay was performed using 30 μl 1:10 (PBS) diluted serum in at least double determination according to the manufacturer's instructions.

Ad-TSHR-immunized mice = test: retro-orbital fibrosis by digitized image analysis of orbital sections; type: in vivo, BALB/c mice; settings: 1 mg/kg IV 4-weekly, Masson's stain
Method: FIG. 6 summarizes the results of histological investigation of orbital sections. […] The sections were taken at defined distances from the mouse bregma. Interstitial connective tissue was then stained in green (Masson's trichrome stain). For clarity, both HE stained sections (left panels) and Masson's stained sections (right panels) are shown next to each other. FIG. 6B: the effects of peptide therapy on severity of retro-orbital fibrosis were evaluated in histological sections of all available animals. The measurements were carried out in Ad-TSHR-immunized mice treated by either 4-weekly injections with vehicle (0.9% NaCl, “Graves' no therapy”, n=9 mice), or administrations of 1 mg/kg body weight of peptide 836 (11 mice) or TSHR-Fc (11 mice). […] The mean total fibrosis volumes of each right and left orbita, as assessed by digitized image analysis of all sections, and consecutive integrations, are shown with SEM. […]
After euthanasia, dissection of the thyroid glands was performed under a stereomicroscope, as described before (22). […] Thyroid volumes (mm^3) were calculated from the sum of the areas of each section over the whole cutting region. Myocardial volumes (mm^3) were calculated in a similar way as described for thyroid glands from the sum of the areas of each section over whole cutting region (5 to 6 slides, depending on respective size of the hearts). […]

[2] = tested on: CHO cells expressing the human TSHR; test: capacity of serum anti-TSHR antibodies from treated mice to stimulate cAMP in test cells; design: species or system BALB/c mice; settings: serum of in vivo treated Ad-TSHR-immunized mice, 1 mg/kg IV 4-weekly
Method: The measurements were carried out in Ad-TSHR-immunized mice treated by either 4-weekly injections with vehicle (0.9% NaCl, “Graves' no therapy”, n=25 mice), or administrations of 1 mg/kg body weight of peptide of the invention 836 (12 mice), or of peptide 829 (13 mice), or TSHR-Fc (18 mice), or of control peptide 835 (13 mice). In addition, age-matched immunologically naïve unimmunized mice (“healthy”, 19 animals) were investigated. Data are represented as mean±SEM. Differences between groups were tested by AVOVA followed by post hoc LSD testing.**p<0.005 compared to the TSHR-immunized group treated with only NaCl (“Graves' no therapy”). […]
Anti-TSHR autoantibody titers and potency of antibodies to stimulate TSHR-dependent cAMP levels in test cells were determined before start of immunisation (basal value), 56 days after first immunisation, 133 days after first immunisation, and 189 days after first immunisation, and at the end of experiment. […]
2) Thyroid stimulating antibodies in the serum of hyperthyroid mice were analysed by measuring cyclic adenosine monophosphate (cAMP) generation in Chinese hamster ovary (CHO) cells JP2626 expressing the human TSHR (kindly provided by Dr. Gilbert Vassart, Brussels, Belgium). […]

| Molecule | clinical findings / tolerability [1] | retro-orbital fibrosis (Ad-TSHR-immunized mice) | maximum TSHR-dependent cAMP levels induced in test cells by mouse serum [2] | anti-TSHR antibody titers in naive mice ([1]; 1 mg/kg IV monthly, 6 month observation period) | naive mice with anti-TSHR antibody titers above cut-off limit ([1]; 1 mg/kg IV, after 3 administrations) |
| --- | --- | --- | --- | --- | --- |
| CC[C@H](C)[C@@H]1NC(=O)[C@H](C(C)C)NC(=O)[C@H]([C@@H](C)O)NC(=O)[C@H](CC(C)C)NC(=O)[C@H](Cc2ccc(O)cc2)NC(=O)[C@H](CCCCN)NC(=O)[C@H](CC(N)=O)NC(=O)[C@H](CCCCN)NC(=O)[C@H](CC(N)=O)NC(=O)[C@H](CC(C)C)NC(=O)[C@H](Cc2ccc(O)cc2)NC(=O)[C@H](C(C)C)NC(=O)[C@H](C)NC(=O)[C@H](CC(=O)O)NC(=O)[C@H](CC(C)C)NC(=O)[C@H](CCCCN)NC(=O)[C@H]([C@@H](C)O)NC(=O)CNC(=O)[C@H](CC(N)=O)NC(=O)[C@H](Cc2ccccc2)NC(=O)[C@H](C)NC(=O)[C@H](Cc2ccc(O)cc2)NC(=O)CNC(=O)[C@H](CC(=O)O)NC1=O [peptide 836] (cyclo(GYAFNGTKLDAVYLNKNKYLTVID)) | no pathological clinical findings were observed | completely reversed | – | – | – |
| SPPCECHQEEDFRVTCKDIQRIPS [peptide 829] | – | – | not significantly different from controls | – | – |
| TSHR-Fc: fusion protein: first 289 amino acids of human TSH receptor (A-subunit), GGR linker and Fc portion of human IgG2 | developed clinical signs of allergy immediately after 4 administrations | – | not affected | significantly (p<0.001) higher than in cyclic peptide-treated or vehicle-treated control mice | 3 out of 6 |
